One data set deals with T1, cathepsin B (Homo sapiens, UniProt P07858).
T1 construct: cathepsin B from human liver (Sigma); purchased Sigma; host or cells: human liver (tissue-purified)
Briefly: Cathepsin B activity assay (fluorogenic Z-Arg-Arg-AMC substrate). It is filed as biochemical. As to conditions: cathepsin B from human liver; read-out: IC50, inhibitory activity towards cathepsin B. Here is the method: (§1) Enzyme-inhibitory activity assays were tested according to literatures reported.
Figure S32. IR spectrum of 8-methoxy-1-naphthyl-1-(6′-O-acetyl)-α-glucopyranoside (10).
S1. Enzyme Inhibitory Assay
S1.1. Cathepsin B Activity Assay
The assay was performed in 96-well plate according to a published method with modification.
Brifely, 50 μL reaction buffer (100 mM sodium acetate (pH 5.5), 1 mM EDTA, 4 mM dithiothreitol) containing 0.0025 unit of cathepsin B from human liver (Sigma, one unit will liberate 1 nanomole of 7-amino-4-methylcoumarin from Z-Arg-Arg 7-amido-4-methylcoumarin per min at pH 6.0 at 40 °C) and 2 μL test compounds dissolved in DMSO were added to each well of a 96-well plate. After preincubation for 15 min at room temperature, 50 μL of reaction buffer containing 100 μM Z-Arg-Arg-7-amido-4-methylcoumarin (Sigma) was added and incubated for 30 min at room temperature.
Fluorescence was measured using a microplate reader (Wallac 1420 Victor 2, PerkinElmer, HolIand) with an excitation of 355 nm and emission at 460 nm.
His-taged human IMPDH П was recombinantly expressed in Escherichia coli and purified by Ni-NTA affinity chromotagraphy as described previously. The IMPDH activity assay was performed in 200-μL assay volume of 96-well plate. Briefly, 2 μL of test compound (dissolved in DMSO) or DMSO and 150 μL enzyme buffer containing 100 mM KH2PO4, 0.5 mM EDTA pH 8, and 2 mM dithiothreitol and 50 nM IMPDH were added into the plate and incubated at 37 °C for 15 min. The reaction was initiated by adding 50 μL reaction buffer containing a final concentration of 200 μM inosine 5-monophosphate (Sigma) and 200 μM NAD (Sigma). The OD was read at 340 nm after incubation at 37 °C for 30 min with a microplate reader (Wallac 1420 Victor 2, PerkinElmer, HolIand).
(1 picture or pasted object on this page, not shown here)

Another data set addresses T2, SHP2 (Homo sapiens, UniProt Q06124).
T2 construct: made in house; host or cells: E. coli
T2 sequence (Q06124 1-593): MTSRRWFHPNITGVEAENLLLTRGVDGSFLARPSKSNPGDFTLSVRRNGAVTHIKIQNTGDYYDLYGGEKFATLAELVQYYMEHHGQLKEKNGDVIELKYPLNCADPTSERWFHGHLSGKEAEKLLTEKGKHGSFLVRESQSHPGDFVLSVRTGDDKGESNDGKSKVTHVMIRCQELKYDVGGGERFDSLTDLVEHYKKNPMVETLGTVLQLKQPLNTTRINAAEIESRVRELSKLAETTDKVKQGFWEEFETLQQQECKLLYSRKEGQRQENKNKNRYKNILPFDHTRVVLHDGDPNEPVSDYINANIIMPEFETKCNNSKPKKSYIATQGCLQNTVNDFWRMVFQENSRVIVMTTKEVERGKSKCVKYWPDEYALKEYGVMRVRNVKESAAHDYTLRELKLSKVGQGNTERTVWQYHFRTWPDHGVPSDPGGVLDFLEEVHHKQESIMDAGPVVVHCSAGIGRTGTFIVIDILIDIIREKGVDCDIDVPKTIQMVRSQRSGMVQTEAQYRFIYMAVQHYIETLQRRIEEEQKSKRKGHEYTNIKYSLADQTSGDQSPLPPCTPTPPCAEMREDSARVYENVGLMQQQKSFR
Briefly: SHP2 activity assay (pNPP substrate). Type of data set: biochemical. As to conditions: human recombinant enzyme, read-out: IC50, inhibitory activity towards SHP2. How it is done:
as §1
S1.3. PTP1B and SHP2 Activity Assays
Human recombinant PTP1B and SHP2 were expressed in E. coli and purifed by Ni-NTA affinity chromotagraphy in our laboratory, respectively. The enzyme activity was measured using p-nitrophenyl phosphate (pNPP) as substrate in a 96-well plate. Brifely, purified recombinant PTP1B or SHP2 (0.05 μg) in 50 μL buffer containing 50 mM citrate (pH 6.0), 0.1 M NaCl, 1 mM EDTA, and 1 mM dithiothreitol (DTT) and test compounds were added to each well of a 96-well plate. After preincubation for 15 min at room temperature, 50 μL of reaction buffer containing 2 mM pNPP was added and incubated at 37 °C for 30 min. The PTP1B or SHP2 activity was measured by detecting the absorbance at 405 nm for the amount of produced p-nitrophenol.
(§2) S2. Larval Settlement Bioassays
(§3) Antifouling activity of compounds was evaluated in settlement inhibition assays with laboratory-reared B. neritina larvae. Larval settlement bioassays were performed using sterile 24-well polystyrene plates as previously reported. Briefly, the stock solution of tested samples in DMSO was diluted with autoclaved filtered sea water (FSW) to concentrations ranging from 1 to 300 ppm. Then the EC50 and LC50 values of active compounds were calculated. In this way, about 20 competent larvae were added to each well in 1 mL of the test solution. Wells containing only FSW with DMSO served as the controls.
(§4) Three replicates of each treatment were used. The plates were incubated at 27 °C for 1 h. The percentage of larval settlement was determined by counting the settled, live individuals under a dissecting microscope and expressing the result as a proportion of the total number of larvae in the well. EC50 (inhibits 50% of settlement of B. neritina larvae in comparison with the control) and LC50 (refers to the concentration that kills 50% of the test organisms in comparison with the control) levels of active compounds were calculated by using the Excel software program.

Another data set has as its target T3, IMPDH (Homo sapiens, UniProt P12268).
T3 construct: His tag; made in house; host or cells: Escherichia coli
The experiment in a line: IMPDH enzyme assay (OD at 340 nm). Type of data set: biochemical. The conditions noted are these: recombinant human IMPDH II; read-out: IC50, inhibitory activity towards IMPDH.

A further data set has as its system Bugula neritina larvae. Briefly: Larval settlement (antifouling) bioassay. The conditions noted are these: for LC50/EC50: B. neritina larvae, ratio of lethal to settlement-inhibiting concentration; for EC50: Bugula neritina, 1 h, read-out: EC50, antifouling activity against B. neritina larvae settlement. How it is done: Larval culture and larval settlement assays matched the method reported in reference. […]
as §2, §3, §4

For the next data set, the target named is T4, PTPlB (Homo sapiens, UniProt P18031).
T4 construct: made in house; host or cells: E. coli
T4 sequence (P18031 1-435): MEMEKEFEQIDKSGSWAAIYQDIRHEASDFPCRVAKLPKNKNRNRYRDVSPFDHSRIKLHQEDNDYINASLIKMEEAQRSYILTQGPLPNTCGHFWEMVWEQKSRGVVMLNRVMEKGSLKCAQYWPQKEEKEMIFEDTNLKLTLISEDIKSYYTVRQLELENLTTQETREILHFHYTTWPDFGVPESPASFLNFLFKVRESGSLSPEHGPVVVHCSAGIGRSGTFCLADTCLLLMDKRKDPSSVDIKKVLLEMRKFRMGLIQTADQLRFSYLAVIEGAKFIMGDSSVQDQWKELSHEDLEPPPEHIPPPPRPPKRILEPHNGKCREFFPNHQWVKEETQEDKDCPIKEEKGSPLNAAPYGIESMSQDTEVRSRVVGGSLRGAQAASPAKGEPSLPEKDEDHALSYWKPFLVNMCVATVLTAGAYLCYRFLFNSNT
The experiment in a line: PTP1B activity assay (pNPP substrate). Type of data set: biochemical. As to conditions: human recombinant enzyme, read-out: IC50, inhibitory activity towards PTPlB.

On the set-up of data set [1]: method as in doi:10.1016/j.tet.2009.02.054. As to conditions: previous studies ref 23; cited from earlier work.

In brackets after ≈: the same amount, converted by molar mass. Where two headings read alike, the source gives them in different places. A value given as a limit tells only on which side of the number the result lay.

As for `Cc1c(O)c(C(=O)O)c(O)c2c1[C@H](C)[C@@H](C)OC2=O` [Compound 4, dihydrocitrinone], the IC50 (commonly the concentration that gives 50% inhibition) on cathepsin B was 28.5 ± 1.7 µM.

As for `Cc1c2c(c3oc4cc(=O)c(C)c5c-4c(c3c1O)O[C@H](C)[C@H]5C)O[C@H](C)[C@H]2C` [Compound 6, dicitrinin A], on SHP2, the IC50 was 58.4 ± 4 µM. Further, at IMPDH, the IC50 is 98.7 ± 6.2 µM. In the data set on Bugula neritina larvae, the LC50/EC50 is given as greater than 56 and the EC50 – broadly, the concentration giving half of the maximal effect – worked out at 1.76 ± 0.8 µg/mL (≈ 4.63 µM).

As for `Cc1c([C@H](C)[C@@H](C)O)cc(O)c(C(=O)O)c1O` [Compound 7, phenol A acid], on cathepsin B, the IC50 was determined as 20.4 ± 1.9 µM. Moreover, in the data set with Bugula neritina larvae, the LC50/EC50 was greater than 15. Further, the EC50 in the data set on Bugula neritina larvae (27 °C) came to 14.3 ± 1.72 µg/mL (≈ 59.7 µM).

Consider `O=C1C[C@@H](O)[C@@H](O)c2cccc(O)c21` [Compound 17, (3R,4S)-(+)-4-hydroxy-6-deoxyscytalone], for which the IC50 stood at 4.1 ± 0.6 µM at SHP2, 41.2 ± 3.6 µM on IMPDH and 13.9 ± 1.8 µM on PTPlB. For the same compound, the “phytotoxicity (in words)” value in data set [1] is on record as “phytotoxic substance”.

`CC(=O)N[C@@H](CC(C)C)C(=O)N[C@@H](CC(C)C)C(=O)N[C@H](C=O)CCCNC(=N)N` [leupeptin, reference compound]: the IC50 on cathepsin B came to 0.03 µM.

`C[C@H]1[C@H](C)CC[C@]2(C(=O)O)CC[C@]3(C)C(=CC[C@@H]4[C@@]5(C)CC[C@H](O)C(C)(C)[C@@H]5CC[C@]43C)[C@H]12` [ursolic acid, reference compound]: the IC50 on SHP2 was determined as 2.8 µM.

These data come from paper PMC3707170, “Polyketides from a Marine-Derived Fungus Xylariaceae sp” (Marine Drugs, 2013).
